Experimental data reported in patent publication US20240285637A1, “PHOSPHODIESTERASE INHIBITORS FOR THE MITIGATION OF FRAGILE X SYNDROME SYMPTOMS” (THE ROYAL INSTITUTION FOR THE ADVANCEMENT OF …, priority 2021, published 2024).
Entries after “also recorded” stand apart in the source; their conditions may differ.

Tests used:
Format in all cases: cell-based, mouse
[1] = test system: blood vessels (capillaries) in the molecular layer of the cerebellum; test: Acute slice vascular reactivity, cerebellar vermis slices (U46619 constriction, NMDA dilation); design: effect on the NMDA response (vasodilation) / vasodilation (direct action on blood vessels): dose or concentration left out as unconfirmed; details: for vasodilation of pre-constricted blood vessels: NMDA 50 μM, 5 mins, after U46619
[2] = test system: blood vessels in the somatosensory cortex; test: Acute slice vascular reactivity, somatosensory cortex; design: effect on the NMDA response (vasodilation) / vasodilation (direct action on blood vessels): dose or concentration left out as unconfirmed; details: for vasodilation of pre-constricted blood vessels: bath application of NMDA
[3] = test system: cerebellar stellate cells; test: Cell-attached recordings of action currents (intrinsic plasticity) after HFS of parallel fibers; details: WT stellate cells, 10 μM APV, 25 minutes after HFS
Excerpt: Cerebellum slice preparation: Mice (P21-35) were anesthetized with isoflurane and immediately decapitated. A block of cerebellar vermis was rapidly dissected from the mouse head and submerged in an ice-cold cutting solution perfused with carbogen gas (95% O2, 5% CO2). Cutting solution contains (in mM): 235 sucrose, 2.5 KCl, 1.25 NaH2PO4, 28 NaHCO3, 0.5 CaCl2, 7 MgCl2, 28 D-glucose, 1 ascorbic acid, and 3 sodium pyruvate (pH 7.4; 305-315 mOsmol/L). The block of vermis was then fastened to a platform, transferred to the slicing chamber and again submerged in ice-cold cutting solution, bubbled with carbogen throughout the remainder of the procedure. Thin slices of cerebellar vermis (300 μm) were obtained with a vibrating tissue sectioner (Leica VT1200; Leica Instruments, Nussloch, Germany). The slices were transferred to oxygenated artificial cerebrospinal fluid (ACSF) and held at room temperature (21° C.-23° C.) for at least 1 h before recordings were performed. […]
For extracellular stimulations, thin walled borosilicate glass electrodes (OD 1.65 mm, ID 1.15 mm; King Precision Glass Inc, Claremont, CA, USA) were used with a tip resistance of <3 MΩ when filled with ACSF. […] To minimize variability between responses, the stimulating electrode was positioned 50-100 μm away from the recorded cell. […]

[4] = test system: cerebellar stellate cells; test: Minimal stimulation protocol, evoked IPSCs before and after HFS (failure rate of GABAergic transmission)
[5] = test system: middle or posterior cerebral arteries; test: Vascular reactivity of isolated pressurized cerebral arteries; details: various concentrations, extraluminal application
Method: Vascular reactivity: Middle or posterior cerebral arteries were isolated from both WT (n=9) and Fmr1-KO (n=4) mice and vessel diameter was measured using video microscopy (Living Systems Instrumental, Burlington, VT) as previously described. Blood vessels were cannulated in a closed sac preparation in 1×KREBS buffer, and gradually pressurized to 60 mmHg. Vasoconstriction was measured in response to extraluminal application of either thromboxane A2 receptor agonist U46619, NMDA, or acetylcholine (ACh) at increasing concentrations (10-9 to 10-3 mol/L, Tocris Bioscience Ellisville, MO, USA). Data is presented as a percentage change from the basal diameter.

[6] = Fmr1 KO stellate cells, 10 μM external MPEP, baseline, n=7
[7] = Fmr1 KO stellate cells, 10 μM external MPEP, post-HFS, n=7

For `CN[C@H](CC(=O)O)C(=O)O` [NMDA, N-methyl-D-aspartate], the “vasodilation of pre-constricted blood vessels” value ([1]; Fmr1 KO cerebellar slices) was “failed to promote blood vessel dilation; also recorded: failed to induce vasodilation”, the “vasodilation of pre-constricted blood vessels” value ([1]; WT cerebellar slices) was “caused vasodilation; also recorded: robust vasodilation” and the “vasodilation of pre-constricted blood vessels” value ([2]; Fmr1 KO cortex) was “failed to induce vasodilation”. The “vasodilation of pre-constricted blood vessels” value ([2]; wildtype cortical blood vessels) was “robust vasodilation”.
With `N[C@H](CCCP(=O)(O)O)C(=O)O` [APV, (2R)-amino-5-phosphonovaleric acid] the “long-term increase in basal firing rates after HFS of PFs” value [3] was “no long-term increase; also recorded: no increase in action potential firing” and the “decrease of failure rate post-HFS” value ([4]; WT mice, in the presence of APV, data not shown) was ~5%.
`COc1ccc2c(c1)c(C1=C(c3c[nH]c4ccccc34)C(=O)NC1=O)cn2CCCN(C)C` [Gö6983] was tested, and the “change of failure rate from baseline to post-HFS” value ([4]; WT mice, kinase (PKC) inhibitor) was “did not change”.
`O=C(O)CN(CC(=O)O)c1ccccc1OCCOc1ccccc1N(CC(=O)O)CC(=O)O` [BAPTA, 1,2-bis(o-aminophenoxy)ethane-N,N,N′,N′-tetraacetic acid)] was tested, and the “change of failure rate post-HFS” value ([4]; WT mice, high BAPTA internal solution, data not shown) was “did not change their failure rate”.
In the case of `Cc1cccc(C#Cc2ccccc2)n1` [MPEP, 2-Methyl-6-(phenylethynyl)-pyridine], the “onset of iLTD” value ([4]; Fmr1 KO stellate cells, 10 μM MPEP) is reported as “prevents the onset of iLTD”, the “failure rate of GABAergic transmission (mean)” value [4, 6] is reported as 77.21+/−3.75% and the “time latency of synaptic events (mean)” value [4, 6] is reported as 2.78 ± 0.24 ms. For the same compound, the “failure rate of GABA-evoked events (mean)” value [4, 7] was 79.98+/−4.58%, the “time latency of synaptic events (mean)” value [4, 7] was 2.32 ± 0.29 ms and the “change of failure rate after HFS protocol” value ([4]; α3 KO mice, MPEP, data not shown) was “slightly decreased their failure rate”.
`COc1ccc(Cc2nccc3cc(OC)c(OC)cc23)cc1OC` [papaverine] was tested, and the “vasodilation (direct action on blood vessels)” value ([1]; Fmr1 KO cerebellum) was “able to induce vasodilation” and the “vasodilation (direct action on blood vessels)” value ([2]; Fmr1 KO cortex) was “able to induce vasodilation”.
In the case of `NC1=N[C@H](O)[C@H]2[C@H]3O[C@]4(O)O[C@@H]([C@@H](O)[C@@]2(N1)[C@@H]4O)[C@]3(O)CO` [tetrodotoxin], the “effect on NMDA-induced vasodilation” value [1] is reported as “completely blocked vasodilation” and the “effect on NMDA-induced vasodilation” value [2] is reported as “blocked”.
`CCCCC[C@H](O)/C=C/[C@@H]1[C@@H](C/C=C\CCCC(=O)O)[C@H]2CO[C@@H]1C2` [U46619] was tested, and the “frequency of blood vessel constriction, Fmr1 KO brain slices compared to WT” value ([1]; 75 nM) was “much less frequently”, the “vasoconstriction, Fmr1 KO brain slices compared to WT” value ([1]; 150 nM) was “reduced vasoconstriction” and the “blood vessels with no response (no constriction), number” value (from here on “blood vessels with no response”) ([1]; Fmr1 KO mice, [U46619] 75 nM) was 2. The “blood vessels with response (constricted), number” value (“blood vessels with response” below) ([1]; Fmr1 KO mice, [U46619] 75 nM) was 8, the “proportion of blood vessels that constricted” value (“proportion” below) ([1]; Fmr1 KO mice, [U46619] 75 nM) was 80% and the “blood vessels with no response” value ([1]; Fmr1 KO mice, [U46619] 150 nM) was 11. For the same compound, the “blood vessels with response” value ([1]; Fmr1 KO mice, [U46619] 150 nM) was 25, the “proportion” value ([1]; Fmr1 KO mice, [U46619] 150 nM) was 69% and the “blood vessels with no response” value ([1]; WT mice, [U46619] 75 nM) was 3. The “blood vessels with response” value ([1]; WT mice, [U46619] 75 nM) was 10, the “proportion” value ([1]; WT mice, [U46619] 75 nM) was 77% and the “blood vessels with no response” value ([1]; WT mice, [U46619] 150 nM) was 2. For the same compound, the “blood vessels with response” value ([1]; WT mice, [U46619] 150 nM) was 18, the “proportion” value ([1]; WT mice, [U46619] 150 nM) was 90% and the “ability to vasoconstrict blood vessels, WT vs Fmr1 KO in all the conditions” value ([1]; cerebellum (FIG. 5N)) was “similar”. For the same compound, the “vasoconstriction of MCA/PCA, Fmr1 KO compared to WT” value [5] was “reduced” and the “ability to vasoconstrict blood vessels, WT vs Fmr1 KO in all the conditions” value ([2]; cortex (FIG. 5O)) was “similar”.
